Experimental data taken from US12497405B2, “Bicyclic heterocycle compounds methods of use thereof for the treatment of herpes viruses” (Merck Sharp & Dohme LLC, priority 2019, dated 2025).
pEC50, pIC50: −log10 of the molar value. Like-named read-outs stand apart in the source and are kept apart here.

Key:
HSV2 = experiment: Viral qPCR assay, HSV2; format: cell-based; conditions: infected cells, viral genome copies by qPCR normalized to PPIA, read-out: HSV2 Cell EC50
Summary of the method: (§1)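 EC50 reflects inhibition of viral DNA copies relative to PPIA after roughly 72 hrs of infection in MRC5, Vero or MeWo cells. Copy numbers were derived by TaqMan qPCR from a plasmid standard curve.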

CMV = experiment: Viral qPCR assay, CMV; format: cell-based; conditions: infected cells, viral genome copies by qPCR normalized to PPIA, read-out: CMV Cell EC50
Summary of the method: as §1

HSV1 = experiment: Viral qPCR assay, HSV1; format: cell-based; conditions: infected cells, viral genome copies by qPCR normalized to PPIA, read-out: HSV1 Cell EC50
Summary of the method: as §1

[1] = target: varicella zoster virus DNA polymerase (Varicella-zoster virus (strain Dumas) (HHV-3) (Human herpesvirus 3), UniProt P09252); experiment: VZV polymerase assay (AlphaLISA); format: biochemical; conditions: VZV polymerase 0.4 nM, 30 min pre-incubation, 60 minute at 37° C.
Experimental: (§2) Human cytomegalovirus and varicella zoster virus DNA polymerases were expressed via baculovirus vector in SF21 cells and purified. Heterodimeric nucleic acid substrate used in the herpesvirus polymerase reactions were generated by annealing a 59-mer template to a 17-mer digoxigenin-labeled primer. Polymerase (HCMV final concentration of 0.2 nM; VZV final concentration of 0.4 nM) was combined with an inhibitor compound or DMSO in assay buffer (10 mM HEPES, pH 7.5, 25 mM KCl, 25 mM NaCl, 5 mM MgCl2, 5% glycerol, 0.67 mg/ml bovine serum albumin, and 1 mM tris(2-carboxyethyl)phosphine)), and this mixture was pre-incubated for 30 minutes at room temperature in 384-well microtiter plates. The polymerization reaction was initiated by the addition of template/primer substrate (final concentration: 1.6 nM), and dNTPs (final concentration: 24 nM dCTP, 24 nMdGTP, 16 nM dATP, 16 nM dTTP, and 0.8 nM biotin-dUTP). After a 60 minute incubation period at 37° C., the reactions were terminated using quench buffer (25 mM HEPES pH 7.5, 100 mM NaCl, 0.25% Tween-20, 12 mM EDTA, and 1 mg/ml bovine serum albumin). Incorporation of biotinylated UTP was detected with 2.5-5 μg/mL anti-DIG AlphaLISA acceptor beads and 5-10 μg/mL streptavidin AlphaLISA donor beads (PerkinElmer). Compound effects were normalized to the window defined by the controls (DMSO only and pre-quenched wells), and were fit using a 4-parameter algorithm to report an IC50.

[2] = target: Human cytomegalovirus DNA polymerase (Human cytomegalovirus (strain AD169) (HHV-5) (Human herpesvirus 5), UniProt P08546); experiment: CMV polymerase assay (AlphaLISA); format: biochemical; conditions: HCMV polymerase 0.2 nM, 30 min pre-incubation, 60 minute at 37° C.
Experimental: as §2

Compound | pEC50 (HSV2; Human alphaherpesvirus 2, 72 h) | pEC50 (CMV; Human betaherpesvirus 5, 72 h) | pEC50 (HSV1; Human alphaherpesvirus 1, 72 h) | pIC50 [1] | pIC50 [2] | pEC50 (HSV2; ~72 hrs) | pEC50 (CMV; ~72 hrs) | pEC50 (HSV1; ~72 hrs)
O=C1OC[C@@H]2C[C@@H](Oc3cnc4ncn(Cc5ccc(Cl)cc5)c(=O)c4c3)CCN12 [Example 28] | 6.05 | 6.30 | 5.90 | 7.22 | 7.32 | – | – | –
Cc1nc2cc(-c3cnn(C(F)F)c3)c(O[C@H]3CCN4C(=O)OC[C@@H]4C3)cc2c(=O)n1Cc1ccc(C#N)cc1 [Example 6] | – | – | – | 8.30 | 8.74 | 7.54 | 7.25 | 7.33
N#Cc1cc2ncn(Cc3ccc(Cl)cc3)c(=O)c2cc1O[C@H]1CCN2C(=O)OC[C@@H]2C1 [Example 41] | 7.12 | 7.11 | 6.88 | 8.96 | 8.57 | – | – | –
Cc1nc2cc(-c3cnco3)c(O[C@H]3CCN4C(=O)OC[C@@H]4C3)cc2c(=O)n1Cc1ccc(Cl)cc1 [Example 51] | 7.80 | 7.68 | 7.59 | 9.36 | 9.66 | – | – | –
COc1ncc(-c2cc3nc(C)n(Cc4ccc(C#N)cc4)c(=O)c3cc2O[C@H]2CCN3C(=O)OC[C@@H]3C2)cn1 [Example 75] | 6.38 | 6.79 | 6.42 | 7.64 | 7.54 | – | – | –
Cc1nc2cc(CC(C)(C)O)c(O[C@H]3CCN4C(=O)OC[C@@H]4C3)cc2c(=O)n1Cc1ccc(Cl)cc1 [Example 3] | – | – | – | 9.30 | 8.62 | 7.26 | 7.43 | 7.12
CC(C)(O)Cc1cc(O[C@H]2CCN3C(=O)OC[C@@H]3C2)cc2c(=O)n(Cc3ccc(Cl)cc3)cnc12 [Example 48] | 6.19 | 6.56 | 6.15 | 7.43 | 7.38 | – | – | –
Cc1nc2cc(C3CC(C)(O)C3)c(O[C@H]3CCN4C(=O)OC[C@@H]4C3)cc2c(=O)n1Cc1ccc(C#N)cc1 (some centres unmarked) [Example 74] | 6.36 | 7.26 | 6.35 | 8.19 | 8.19 | – | – | –
Cc1nc2cc(-c3cc4n(n3)CCN(C)C4)c(O[C@H]3CCN4C(=O)OC[C@@H]4C3)cc2c(=O)n1Cc1ccc(Cl)cc1 [Example 86] | 7.39 | 7.17 | 7.24 | 9.36 | 9.36 | – | – | –
C[C@@H]1CN(C2CCOC2)CCN1c1ccc2ncn(Cc3ccc(Cl)cc3)c(=O)c2c1 (single isomer, unassigned) [Example 44] | 5.90 | 6.28 | 5.84 | 6.84 | 7.11 | – | – | –
Cc1cc2ccn(Cc3ccc(Cl)cc3)c(=O)c2cc1O[C@H]1CCN2C(=O)OC[C@@H]2C1 [Example 26] | 6.45 | 6.53 | 6.17 | 7.74 | 7.89 | – | – | –
Cc1nc2cc(-c3cn4c(n3)CN(C)CC4)c(O[C@H]3CCN4C(=O)OC[C@@H]4C3)cc2c(=O)n1Cc1ccc(Cl)cc1 [Example 79] | 6.91 | 6.83 | 6.95 | 8.26 | 8.31 | – | – | –
Cc1nc2cc(-c3cn(C(F)F)nn3)c(O[C@H]3CCN4C(=O)OC[C@@H]4C3)cc2c(=O)n1Cc1ccc(Cl)cc1 [Example 12] | – | – | – | 9.33 | 9.33 | 7.21 | 6.95 | 7.14
CCc1nc2cc(-c3cnco3)c(O[C@H]3CCN4C(=O)OC[C@@H]4C3)cc2c(=O)n1Cc1ccc(C#N)cc1 [Example 65] | 7.74 | 7.55 | 7.34 | 9.17 | 8.92 | – | – | –
CC(O)Cc1nc2ccn(Cc3ccc(Cl)cc3)c(=O)c2cc1O[C@H]1CCN2C(=O)OC[C@@H]2C1 (single isomer, unassigned) [Example 33] | 6.63 | 6.81 | 6.58 | 7.89 | 8.13 | – | – | –
Cc1nc2cc(-c3cnn(C(F)F)c3)c(O[C@H]3CCN4C(=O)OC[C@@H]4C3)cc2c(=O)n1Cc1ccc(Cl)cc1 [Example 4] | – | – | – | 8.51 | 8.96 | 7.59 | 7.29 | 7.22

Compound | pEC50 (HSV2; Human alphaherpesvirus 2, 72 h) | pEC50 (CMV; Human betaherpesvirus 5, 72 h) | pEC50 (HSV1; Human alphaherpesvirus 1, 72 h) | pIC50 [1] | pIC50 [2] | pEC50 (HSV2; ~72 hrs) | pEC50 (CMV; ~72 hrs) | pEC50 (HSV1; ~72 hrs)
Cc1nc2cc(-c3cnn(C(F)F)c3)c(O[C@H]3CCN4C(=O)OC[C@@H]4C3)cc2c(=O)n1Cc1ccc(C#N)cc1F [Example 64] | 7.29 | 7.19 | 7.15 | 8.05 | 8.60 | – | – | –
O=C1OC[C@@H]2C[C@@H](Oc3cc4c(=O)n(Cc5ccc(Cl)cc5)cnc4nc3-c3cnco3)CCN12 [Example 7] | – | – | – | 8.04 | 8.34 | 7.05 | 6.98 | 6.93
Cc1nc2cc(C#N)c(O[C@H]3CCN4C(=O)OC[C@@H]4C3)cc2c(=O)n1Cc1ccc(Cl)cc1 [Example 56] | 6.96 | 7.19 | 6.91 | 8.19 | 8.55 | – | – | –
CC(C)(O)Cc1nc2ncn(Cc3ccc(Cl)cc3)c(=O)c2cc1O[C@H]1CCN2C(=O)OC[C@@H]2C1 [Example 45] | 6.51 | 6.57 | 6.57 | 7.60 | 7.96 | – | – | –
Cc1nc2cc(-c3cnn(C(F)F)c3)c(O[C@H]3CCN4C(=O)OC[C@@H]4C3)cc2c(=O)n1Cc1ccc(C#N)c(F)c1 [Example 66] | 7.47 | 7.30 | 7.37 | 8.32 | 8.66 | – | – | –
N#Cc1ccc(Cn2c(=O)[nH]c3cc(-c4cnco4)c(O[C@H]4CCN5C(=O)OC[C@@H]5C4)cc3c2=O)cc1 [Example 10] | – | – | – | 9.55 | 9.62 | 7.17 | 7.15 | 6.96
Cc1nc2cc(C3CC(O)C3)c(O[C@H]3CCN4C(=O)OC[C@@H]4C3)cc2c(=O)n1Cc1ccc(C#N)cc1 (some centres unmarked) [Example 72] | 6.39 | 6.71 | 6.74 | 8.33 | 8.12 | – | – | –
CC(C)(O)Cc1cc2ccn(Cc3ccc(Cl)cc3)c(=O)c2cc1O[C@H]1CCN2C(=O)OC[C@@H]2C1 [Example 34] | 7.09 | 7.13 | 6.96 | 8.85 | 8.68 | – | – | –
COc1nc2cc(-c3cnco3)c(O[C@H]3CCN4C(=O)OC[C@@H]4C3)cc2c(=O)n1Cc1ccc(C#N)cc1 [Example 9] | – | – | – | 9.36 | 9.36 | 7.89 | 7.46 | 7.70
CCc1nc2cc(-c3cnc(OC)nc3)c(O[C@H]3CCN4C(=O)OC[C@@H]4C3)cc2c(=O)n1Cc1ccc(Cl)cc1 [Example 78] | 6.65 | 6.75 | 6.39 | 7.70 | 7.82 | – | – | –
Cc1nc2cc(C3CC(N)C3)c(O[C@H]3CCN4C(=O)OC[C@@H]4C3)cc2c(=O)n1Cc1ccc(C#N)cc1 (single isomer, unassigned) [Example 83] | 4.68 | 5.34 | 5.17 | 7.70 | 7.72 | – | – | –
COc1ccc(-c2cc3nc(C)n(Cc4ccc(Cl)cc4)c(=O)c3cc2O[C@H]2CCN3C(=O)OC[C@@H]3C2)nn1 [Example 14] | – | – | – | 7.85 | 7.89 | 6.57 | 6.55 | 6.43
Cc1nc2cc(-c3cnco3)c(O[C@H]3CCN4C(=O)OC[C@@H]4C3)cc2c(=O)n1Cc1ccc(C#N)cc1 [Example 60] | 7.40 | 7.28 | 7.08 | 9.36 | 9.09 | – | – | –
Cc1nc2cc(-c3cc4n(n3)CCN(CC(F)(F)F)C4)c(O[C@H]3CCN4C(=O)OC[C@@H]4C3)cc2c(=O)n1Cc1ccc(Cl)cc1 [Example 147] | 7.02 | 6.64 | 6.56 | 7.92 | 8.15 | – | – | –
O=C1OC[C@@H]2C[C@@H](Oc3cc4c(=O)n(Cc5ccc(Cl)cc5)ccc4cn3)CCN12 [Example 2] | – | – | – | 7.36 | 7.31 | 5.98 | 6.06 | 5.77
